# Non-standard residues stand in square brackets, D forms with d. Residues, ends and D or L forms follow the SMILES beside them. pHOPA = not defined here
# Experiments:
# PTC, (colon) = experiment: In vitro cytotoxic activity, MTT assay, 72 hours; format: cell-based, human
# Method: (§1) The cytotoxic activity of synthesized peptides was tested on six human tumor cell lines namely MCF7 (breast), U373 (glioblastoma), PTC, (colon), L132 (lung), Su.86.86 (pancreas), and KB (oral). The tumor cells were collected at exponential growth phase and resuspended in medium (1.5 x 10^6 cells/ml in RPMI 1640 containing 10% FBS). 150µL of medium was added to the wells of a 96-well tissue culture plate (Nunc, Denmark) followed by 30µl of cell suspension. The plate was left in an incubator (37°C, 5% CO2) overnight. 20µl of the peptide (100 pM to 10 µM concentration) was added to marked wells of the 96-well plate. Each concentration was plated in triplicate. 20µl of medium alone was added to control wells while wells without cells served as blanks. A total volume of 200µL was ensured in each well and plate was left in incubator (37°C, 5% CO2). After 72 hours of incubation an MTT assay was performed and percentage cytotoxicity was calculated with respect to control cells.
# U373 (glioblastoma) = experiment: In vitro cytotoxic activity, MTT assay, 72 hours; format: cell-based, human
# Method: as §1
# MCF7 (breast) = experiment: In vitro cytotoxic activity, MTT assay, 72 hours; format: cell-based, human
# Method: as §1
# L132 (lung) = experiment: In vitro cytotoxic activity, MTT assay, 72 hours; format: cell-based, human
# Method: as §1
# KB (oral) = experiment: In vitro cytotoxic activity, MTT assay, 72 hours; format: cell-based, human
# Method: as §1
# Su.86.86 (pancreas) = experiment: In vitro cytotoxic activity, MTT assay, 72 hours; format: cell-based, human
# Method: as §1
# HeP2 (Larngeal) = experiment: In vitro cytotoxic activity of lipo conjugates, MTT assay, 48 hours; format: cell-based
# Method: (§2) The cytotoxic effect of lipo-conjugates of substance P analogs SEQ ID NO: 6, SEQ ID NO: 7 and SEQ ID NO: 8, was studied by MTT assay which is based on the principle of uptake of MTT [3-[4,5-dimethylthiazol-2-yl]-2,5-diphenyl tetrazolium bromide], a tetrazolium salt by the metabolically active cells where it is metabolized by active mitochondria in to a blue colored formazan product which can be read spectrophotometrically. Briefly, tumor cells - KB (Oral squamous), U87MG (Blioblastoma), HBL100 (Breast), HeP2 (Larngeal), ECV304 (Endothelial), PA-1 (Ovary) and L132 (Lunng) were incubated with the peptide analogs for 48 hours at 37°C in a 96-well culture plate, followed by the addition of 100 µg MTT and further incubation of 1 hour. The formazan crystals formed inside the cells were dissolved with a detergent comprising of 10% Sodium dodecyl sulfate and 0.01 N HCl and optical density read on a multiscan ELISA reader. The optical density was directly proportional to the number of proliferating and metabolically active cells. SEQ ID NO: 6
# ECV304 (Endothelial) = experiment: as above; format: cell-based
# Method: as §2
# KB (Oral squamous) = experiment: as above; format: cell-based
# Method: as §2
# HBL100 (Breast) = experiment: as above; format: cell-based
# Method: as §2
# U87MG (Blioblastoma) = experiment: as above; format: cell-based
# Method: as §2
# PA-1 (Ovary) = experiment: as above; format: cell-based
# Method: as §2
# L132 (Lunng) = experiment: as above; format: cell-based
# Method: as §2
# SCLC = conditions: inhibition of SCLC proliferation; cited from earlier work
# [1] = tested on: H-510 and H-69 SCLC cells; conditions: proliferation of H-510 and H-69 SCLC cells in liquid culture and in semi-solid media; cited from earlier work
compound,measurement,setting,value
"CCCC(=O)N[C@H](CCCNC(=N)N)C(=O)N1CCC[C@H]1C(=O)N[C@@H](CCCCN)C(=O)N1CCC[C@H]1C(=O)N[C@H](Cc1ccccc1)C(=O)N[C@@H](CCC(N)=O)C(=O)N[C@H](Cc1c[nH]c2ccccc12)C(=O)N[C@@H](Cc1ccccc1)C(=O)N[C@H](Cc1c[nH]c2ccccc12)C(=O)N[C@@H](CC(C)C)C(=O)NC1(C(N)=O)CCCC1 [SEQ ID NO: 7, Butanoyl-D-Arg-Pro-Lys-Pro-D-Phe-Gln-D-Trp-Phe-D-Trp-Leu-Ac5c-NH2] (HELM PEPTIDE1{[CCCC(=O)[*:2]].[dR].P.K.P.[dF].Q.[dW].F.[dW].L.[O=C(C1(N[*:1])CCCC1)[*:2]].[am]}$$$$V2.0)",Percentage cytotoxicity at different concentrations,"PTC, (colon); 100pM",Nil
same,Percentage cytotoxicity at different concentrations,"PTC, (colon); 1nM",Nil
same,Percentage cytotoxicity at different concentrations,"PTC, (colon); 10nM",5.8 ± 0.2%
same,Percentage cytotoxicity at different concentrations,"PTC, (colon); 100nM",5.3 ± 0.2%
same,Percentage cytotoxicity at different concentrations,"PTC, (colon); 1µM",11.7 ± 3.0%
same,Percentage cytotoxicity at different concentrations,"PTC, (colon); 10µM",27.3 ± 5.4%
same,Percentage cytotoxicity at different concentrations,U373 (glioblastoma); 100pM,10.9 ± 1.0%
same,Percentage cytotoxicity at different concentrations,U373 (glioblastoma); 1nM,13.4 ± 4.6%
same,Percentage cytotoxicity at different concentrations,U373 (glioblastoma); 10nM,6.6 ± 0.7%
same,Percentage cytotoxicity at different concentrations,U373 (glioblastoma); 100nM,8.8 ± 0.2%
same,Percentage cytotoxicity at different concentrations,U373 (glioblastoma); 1µM,8.3 ± 0.5%
same,Percentage cytotoxicity at different concentrations,U373 (glioblastoma); 10µM,21.1 ± 1.7%
same,Percentage cytotoxicity at different concentrations,"MCF7 (breast); MCF-7, 100pM",19.3 ±1.8%
same,Percentage cytotoxicity at different concentrations,"MCF7 (breast); MCF-7, 1nM",20.55 ± 3.1%
same,Percentage cytotoxicity at different concentrations,"MCF7 (breast); MCF-7, 10nM",5.7 ± 1.5%
same,Percentage cytotoxicity at different concentrations,"MCF7 (breast); MCF-7, 100nM",15.4 ± 0.7%
same,Percentage cytotoxicity at different concentrations,"MCF7 (breast); MCF-7, 1µM",11.7 ± 5.1%
same,Percentage cytotoxicity at different concentrations,"MCF7 (breast); MCF-7, 10µM",19.7 ±5%
same,Percentage cytotoxicity at different concentrations,L132 (lung); 100pM,14 ± 3.4%
same,Percentage cytotoxicity at different concentrations,L132 (lung); 1nM,25 ± 8%
same,Percentage cytotoxicity at different concentrations,L132 (lung); 10nM,19 ± 3.3%
same,Percentage cytotoxicity at different concentrations,L132 (lung); 100nM,9 ± 2.3%
same,Percentage cytotoxicity at different concentrations,L132 (lung); 1µM,9 ± 2.3%
same,Percentage cytotoxicity at different concentrations,L132 (lung); 10µM,15 ± 2.3%
same,Percentage cytotoxicity at different concentrations,KB (oral); 100pM,Nil
same,Percentage cytotoxicity at different concentrations,KB (oral); 1nM,6 ± 0.9%
same,Percentage cytotoxicity at different concentrations,KB (oral); 10nM,10 ± 3.4%
same,Percentage cytotoxicity at different concentrations,KB (oral); 100nM,10 ± 4.9%
same,Percentage cytotoxicity at different concentrations,KB (oral); 1µM,4 ± 2.6%
same,Percentage cytotoxicity at different concentrations,KB (oral); 10µM,15 ± 2.3%
same,Percentage cytotoxicity at different concentrations,"Su.86.86 (pancreas); Su8686, 100pM",6 ± 1.8%
same,Percentage cytotoxicity at different concentrations,"Su.86.86 (pancreas); Su8686, 1nM",25 ± 5.3%
same,Percentage cytotoxicity at different concentrations,"Su.86.86 (pancreas); Su8686, 10nM",10 ± 2.8%
same,Percentage cytotoxicity at different concentrations,"Su.86.86 (pancreas); Su8686, 100nM",15 ± 3.8%
same,Percentage cytotoxicity at different concentrations,"Su.86.86 (pancreas); Su8686, 1µM",36 ± 3.3%
same,Percentage cytotoxicity at different concentrations,"Su.86.86 (pancreas); Su8686, 10µM",38 ± 4.3%
same,Percentage cytotoxicity at different concentrations,HeP2 (Larngeal); 1nM,16.4 ± 3.2%
same,Percentage cytotoxicity at different concentrations,HeP2 (Larngeal); 10nM,19.8 ± 4.8%
same,Percentage cytotoxicity at different concentrations,HeP2 (Larngeal); 100nM,24.7 ± 2.5%
same,Percentage cytotoxicity at different concentrations,HeP2 (Larngeal); 1µM,12.9 ± 1.4%
same,Percentage cytotoxicity at different concentrations,ECV304 (Endothelial); 1nM,13.9 ± 4.5%
same,Percentage cytotoxicity at different concentrations,ECV304 (Endothelial); 10nM,16.5 ± 3.3%
same,Percentage cytotoxicity at different concentrations,ECV304 (Endothelial); 100nM,20.9 ± 2.3%
same,Percentage cytotoxicity at different concentrations,ECV304 (Endothelial); 1µM,6.0 ± 2.4%
same,Percentage cytotoxicity at different concentrations,KB (Oral squamous); 1nM,20.9 ± 3.6%
same,Percentage cytotoxicity at different concentrations,KB (Oral squamous); 10nM,21.9 ± 4.1%
same,Percentage cytotoxicity at different concentrations,KB (Oral squamous); 100nM,18.0 ± 5.2%
same,Percentage cytotoxicity at different concentrations,KB (Oral squamous); 1µM,9.0 ± 5.3%
same,Percentage cytotoxicity at different concentrations,HBL100 (Breast); 1nM,13.9 ± 3.5%
same,Percentage cytotoxicity at different concentrations,HBL100 (Breast); 10nM,22.9 ± 3.8%
same,Percentage cytotoxicity at different concentrations,HBL100 (Breast); 100nM,23.9 ± 1.7%
same,Percentage cytotoxicity at different concentrations,HBL100 (Breast); 1µM,22.8 ± 1.4%
same,Percentage cytotoxicity at different concentrations,U87MG (Blioblastoma); 1nM,22.9 ± 2.3%
same,Percentage cytotoxicity at different concentrations,U87MG (Blioblastoma); 10nM,27.8 ± 2.2%
same,Percentage cytotoxicity at different concentrations,U87MG (Blioblastoma); 100nM,21.8 ± 1.2%
same,Percentage cytotoxicity at different concentrations,U87MG (Blioblastoma); 1µM,14.8 ± 1.4%
same,Percentage cytotoxicity at different concentrations,PA-1 (Ovary); 1nM,12.7 ± 3.5%
same,Percentage cytotoxicity at different concentrations,PA-1 (Ovary); 10nM,26.7 ± 2.4%
same,Percentage cytotoxicity at different concentrations,PA-1 (Ovary); 100nM,32.9 ± 2.6%
same,Percentage cytotoxicity at different concentrations,PA-1 (Ovary); 1µM,23.7 ± 3.3%
same,Percentage cytotoxicity at different concentrations,L132 (Lunng); 1nM,14.9 ± 4.9%
same,Percentage cytotoxicity at different concentrations,L132 (Lunng); 10nM,24.7 ± 3.5%
same,Percentage cytotoxicity at different concentrations,L132 (Lunng); 100nM,18.5 ± 3.6%
same,Percentage cytotoxicity at different concentrations,L132 (Lunng); 1µM,12.9 ± 2.4%
D-MePhe-D-Trp-Phe-D-TrpLeu(psi)-(CH2NH)-Leu-NH2 [Analog 6],IC50,SCLC,2 µM
D-MePhe-D-Trp-Phe-DTrp-Leu-MPA [Analog 7],IC50,SCLC,5 µM
"[D-Arg^1, D-Phe^5, D-Trp^7,9, Leu^11] substance P [Antagonist D]",IC50,[1],5 µM
pHOPA-D-Trp-Phe-D-Trp-Leu-Leu-NH2 (pHOPA-[dW]F[dW]LL-NH2; reading uncertain) [Analog R],IC50,SCLC,10 µM

# — EP1337551B1, “SUBSTANCE P ANALOGS FOR THE TREATMENT OF CANCER” (DABUR PHARMA LTD., priority 2000, dated 2002)
